Measured values: ChEMBL document CHEMBL1201862, “PubChem BioAssay data set” (2004)
Counter-ions that a name gives are not always drawn. One block for each compound: values may come before it. Active and inactive are the calls of the source.

What was measured:
Melanocortin receptor 4 = Melanocortin receptor 4 (Homo sapiens, UniProt P32245); format: functional, cell-based;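 also: Cell-based assay with luminescence read-out, confirmatory dose-response testing for agonist activity of biased ligands at MC4R; human U2OS cells with tagged receptor and beta-arrestin; potency of agonists that increase receptor coupling to beta-arrestin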
[1] = biological target: T1, Aryl hydrocarbon receptor (Homo sapiens, UniProt P35869); settings: Potency;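 also: confirmatory quantitative high-throughput screen measuring activation of the AhR signaling pathway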
T1 sequence (P35869 whole entry): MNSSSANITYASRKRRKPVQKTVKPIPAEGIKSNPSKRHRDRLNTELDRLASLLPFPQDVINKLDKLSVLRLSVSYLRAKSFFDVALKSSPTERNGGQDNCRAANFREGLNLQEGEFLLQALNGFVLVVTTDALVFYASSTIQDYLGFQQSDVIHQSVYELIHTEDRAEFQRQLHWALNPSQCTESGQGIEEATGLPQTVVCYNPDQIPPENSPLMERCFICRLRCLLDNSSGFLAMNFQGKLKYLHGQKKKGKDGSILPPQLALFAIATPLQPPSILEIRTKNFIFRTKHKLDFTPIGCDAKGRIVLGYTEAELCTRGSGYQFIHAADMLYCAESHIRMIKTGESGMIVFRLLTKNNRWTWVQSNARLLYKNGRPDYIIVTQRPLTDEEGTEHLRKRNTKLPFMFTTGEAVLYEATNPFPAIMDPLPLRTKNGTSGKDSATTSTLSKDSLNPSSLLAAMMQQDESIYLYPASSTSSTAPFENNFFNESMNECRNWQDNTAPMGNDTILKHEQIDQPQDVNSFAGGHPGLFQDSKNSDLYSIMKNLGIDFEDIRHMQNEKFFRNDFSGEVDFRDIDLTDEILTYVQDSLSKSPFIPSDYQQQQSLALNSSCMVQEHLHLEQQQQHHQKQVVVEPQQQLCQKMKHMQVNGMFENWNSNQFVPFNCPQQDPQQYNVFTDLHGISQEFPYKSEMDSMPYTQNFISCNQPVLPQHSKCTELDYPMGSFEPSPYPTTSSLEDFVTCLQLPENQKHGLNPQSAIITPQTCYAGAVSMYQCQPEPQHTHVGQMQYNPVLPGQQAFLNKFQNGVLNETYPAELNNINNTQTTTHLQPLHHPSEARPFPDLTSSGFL

[2] = biological target: Ras and Rab interactor 1/Tyrosine-protein kinase ABL1 (Homo sapiens, UniProt P00519+Q13671); format: functional;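 also: biochemical TR-FRET dose-response test measuring inhibition of binding between Rin1 and Abl proteins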
Prothrombin = Prothrombin (Bos taurus, UniProt P00735); assay: thrombin protease inhibitors – biochemical, fluorescence polarization, uHTS hits, dose response (AID 602369); format: functional
[3] = biological target: 72 kDa type IV collagenase (Homo sapiens, UniProt P08253); assay: Dose Response validation of uHTS RPN11 inhibitor hits using a MMP-2 Fluorescence assay.; format: functional
[4] = biological target: 26S proteasome non-ATPase regulatory subunit 14 (Homo sapiens, UniProt O00487); assay: inhibition of proteasome subunit RPN11 – biochemical, fluorescence polarization, uHTS hits, confirmation (AID 602368); format: functional
[5] = mammalian cell viability loss – Alamar Blue, dry powder, cytotoxicity control for antifungal single agent project, dose response (AID 602188); format: functional, cell-based
Beta-galactosidase = Beta-galactosidase (Escherichia coli, UniProt Q8VNN2); assay: detection-enzyme interference by beta-gal modulators – biochemical, E. coli enzyme, set 3, artefact control for CCR6 antagonist project, dose response (AID 504712); format: functional
[6] = Trypanosoma cruzi growth suppression in host cells – NIH3T3 host cells, beta-gal luminescence, confirmation (AID 2044); format: functional, cell-based;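 also: intracellular parasites grown in NIH/3T3 mouse fibroblasts as host cells; luminescent beta-galactosidase reporter signal from transgenic T. cruzi replicating inside host cells; inhibitors lower the luminescence signal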
[7] = fluconazole-exposed Candida albicans growth modulators – fluorescence, retest, confirmation (AID 2467); format: functional, cell-based
[8] = biological target: ATP-dependent molecular chaperone HSP82 (Candida albicans (strain WO-1) (Yeast), UniProt C4YTQ8); assay: steroid-induced GRE reporter decrease in yeast – S. cerevisiae, luminescence, Hsp90 inhibitor project, dose response (AID 2400); format: functional, cell-based;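 also: beta-galactosidase luminescence from glucocorticoid response element reporter as proxy for Hsp90 function; inhibitor potency where signal loss means Hsp90 inhibition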
[9] = biological target: Heat shock protein HSP 90-alpha (Homo sapiens, UniProt P07900); format: functional, organism-based
[10] = NIH3T3 cell viability loss – ATP luminescence, mouse fibroblasts, counter-screen, dose response (AID 2010); format: functional, cell-based;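 also: cells exposed to compound for about 90 hours before reading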
[11] = biological target: T2, Serine/threonine-protein phosphatase (Candida dubliniensis (strain CD36 / CBS 7987 / NCPF 3949 / NRRLY-17841) (Yeast), UniProt B9W6M3); assay: blockers of CaCl2-induced CDRE-lacZ signaling – S. cerevisiae, luminescence, secondary, dose response (AID 2388); format: functional, cell-based;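 also: yeast reporter cells carrying a calcineurin-responsive lacZ construct stimulated with calcium chloride; luminescent beta-galactosidase reporter signal in whole cells rather than isolated phosphatase activity; potency for inhibition where a drop in reporter signal means calcineurin blockade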
T2 sequence (B9W6M3 whole entry): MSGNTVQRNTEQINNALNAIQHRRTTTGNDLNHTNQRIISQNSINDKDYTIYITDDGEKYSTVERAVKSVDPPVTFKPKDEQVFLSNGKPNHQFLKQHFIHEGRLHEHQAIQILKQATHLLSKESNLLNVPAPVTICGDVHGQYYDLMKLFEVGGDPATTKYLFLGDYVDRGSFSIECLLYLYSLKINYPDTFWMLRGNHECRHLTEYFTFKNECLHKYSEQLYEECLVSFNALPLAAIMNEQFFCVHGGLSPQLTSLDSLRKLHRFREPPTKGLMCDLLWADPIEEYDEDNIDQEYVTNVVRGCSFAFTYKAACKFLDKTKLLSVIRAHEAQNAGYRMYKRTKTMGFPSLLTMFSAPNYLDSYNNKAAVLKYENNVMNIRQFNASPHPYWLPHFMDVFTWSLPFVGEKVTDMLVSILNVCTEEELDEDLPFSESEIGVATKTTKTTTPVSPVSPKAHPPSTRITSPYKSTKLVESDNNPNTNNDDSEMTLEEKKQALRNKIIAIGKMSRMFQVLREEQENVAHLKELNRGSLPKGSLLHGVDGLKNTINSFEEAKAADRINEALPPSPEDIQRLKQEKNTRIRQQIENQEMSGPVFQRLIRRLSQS

[12] = NIH-3T3 fibroblast cytotoxicity, dose response, cytotoxicity control, cell-based, fluorescence, Alamar Blue, secondary assay (AID 2327); format: functional;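 also: NIH-3T3 mouse fibroblasts cultured with fluconazole at 8 µg/mL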
[13] = bead-based luminescence quenchers, dual-tagged ARNT – biochemical, AlphaScreen, cherry-pick, artefact control for ARNT-TACC3 interaction inhibitor project, dose response (AID 651705); format: functional;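 also: AlphaScreen bead proximity signal that flags compounds interfering with the detection technology; potency reflects signal decrease which marks the compound as an assay artifact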
[14] = IC50 of Artemis nuclease activity blockers – biochemical, fluorescence intensity, dose response (AID 720701); format: functional;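 also: Artemis endonuclease enzyme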
[15] = biological target: Cell division cycle 7-related protein kinase (Homo sapiens, UniProt O00311); format: functional;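 also: value obtained from a kinome-wide kinase panel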
[16] = biological target: Serine/threonine-protein kinase pim-1 (Homo sapiens, UniProt P11309); format: functional
[17] = biological target: Interleukin-1 receptor-associated kinase 4 (Homo sapiens, UniProt Q9NWZ3); format: functional
[18] = biological target: Glycogen synthase kinase-3 beta (Homo sapiens, UniProt P49841); format: functional;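 also: value comes from a broad kinome profiling panel, with GSK3B as the panel member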
[19] = biological target: Mitogen-activated protein kinase kinase kinase kinase 4 (Homo sapiens, UniProt O95819); format: functional
[20] = biological target: Dual specificity protein kinase CLK4 (Homo sapiens, UniProt Q9HAZ1); format: functional
[21] = biological target: Homeodomain-interacting protein kinase 2 (Homo sapiens, UniProt Q9H2X6); format: functional;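 also: measured within a kinome-wide kinase profiling panel, HIPK2 being one panel member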
[22] = biological target: cAMP-dependent protein kinase catalytic subunit alpha (Homo sapiens, UniProt P17612); format: functional
Interleukin-8 [23] = biological target: T3, Interleukin-8 (Homo sapiens, UniProt P10145); assay: Dose Response confirmation of uHTS small molecule hits for cystic fibrosis induced NFkb Inhibitors in a PAF-induced IL8 counterscreen.; format: functional; settings: read-out: IC50_Mean
Kallikrein-7 = Kallikrein-7 (Homo sapiens, UniProt P49862); assay: Fluorescence Intensity-based biochemical primary high throughput dose response assay to identify activators of kallikrein-7 (K7) zymogen.
[24] = biological target: T4, DNA repair and recombination protein RAD54-like (Homo sapiens, UniProt Q92698); assay: RAD54 Holliday junction migration blockers – biochemical, fluorescence, cherry-picked samples, dose series, confirmation (AID 651657); format: functional
T4 sequence (Q92698 whole entry): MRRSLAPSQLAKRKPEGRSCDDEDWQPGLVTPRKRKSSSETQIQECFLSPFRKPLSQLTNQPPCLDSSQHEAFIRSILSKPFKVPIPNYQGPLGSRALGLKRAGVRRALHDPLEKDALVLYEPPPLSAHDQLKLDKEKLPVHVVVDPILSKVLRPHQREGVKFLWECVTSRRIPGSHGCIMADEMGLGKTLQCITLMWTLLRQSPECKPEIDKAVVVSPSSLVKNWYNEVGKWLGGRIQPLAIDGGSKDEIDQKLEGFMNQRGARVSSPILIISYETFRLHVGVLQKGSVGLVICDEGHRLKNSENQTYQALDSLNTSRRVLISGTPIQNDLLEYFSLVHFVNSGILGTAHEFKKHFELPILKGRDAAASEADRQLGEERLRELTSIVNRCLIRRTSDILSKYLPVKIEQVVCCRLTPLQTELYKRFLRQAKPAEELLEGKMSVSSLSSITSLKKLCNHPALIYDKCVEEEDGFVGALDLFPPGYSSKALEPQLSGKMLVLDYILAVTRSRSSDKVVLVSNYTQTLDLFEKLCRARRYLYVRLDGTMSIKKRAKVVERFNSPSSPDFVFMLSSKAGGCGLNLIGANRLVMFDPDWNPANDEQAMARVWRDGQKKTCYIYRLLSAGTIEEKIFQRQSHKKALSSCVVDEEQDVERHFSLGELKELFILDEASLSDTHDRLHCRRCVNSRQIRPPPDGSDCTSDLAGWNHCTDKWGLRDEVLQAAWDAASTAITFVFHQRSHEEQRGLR

Interleukin-8 [25] = biological target: T3, Interleukin-8; assay: Dose Response confirmation of uHTS small molecule hits for cystic fibrosis induced NFkb Inhibitors in a TNFa-induced IL8 counterscreen.; format: functional; settings: read-out: IC50_Mean
[26] = biological target: T5, Apoptotic protease-activating factor 1 (Homo sapiens, UniProt O14727); assay: SAR analysis of small molecule Activators of Apaf-1 in a Fluorescent assay.; format: functional; settings: read-out: EC50_Mean;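 also: caspase-3 cleavage of fluorogenic Rh110 DEVD substrate downstream of apoptosome activation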
T5 sequence (O14727 whole entry): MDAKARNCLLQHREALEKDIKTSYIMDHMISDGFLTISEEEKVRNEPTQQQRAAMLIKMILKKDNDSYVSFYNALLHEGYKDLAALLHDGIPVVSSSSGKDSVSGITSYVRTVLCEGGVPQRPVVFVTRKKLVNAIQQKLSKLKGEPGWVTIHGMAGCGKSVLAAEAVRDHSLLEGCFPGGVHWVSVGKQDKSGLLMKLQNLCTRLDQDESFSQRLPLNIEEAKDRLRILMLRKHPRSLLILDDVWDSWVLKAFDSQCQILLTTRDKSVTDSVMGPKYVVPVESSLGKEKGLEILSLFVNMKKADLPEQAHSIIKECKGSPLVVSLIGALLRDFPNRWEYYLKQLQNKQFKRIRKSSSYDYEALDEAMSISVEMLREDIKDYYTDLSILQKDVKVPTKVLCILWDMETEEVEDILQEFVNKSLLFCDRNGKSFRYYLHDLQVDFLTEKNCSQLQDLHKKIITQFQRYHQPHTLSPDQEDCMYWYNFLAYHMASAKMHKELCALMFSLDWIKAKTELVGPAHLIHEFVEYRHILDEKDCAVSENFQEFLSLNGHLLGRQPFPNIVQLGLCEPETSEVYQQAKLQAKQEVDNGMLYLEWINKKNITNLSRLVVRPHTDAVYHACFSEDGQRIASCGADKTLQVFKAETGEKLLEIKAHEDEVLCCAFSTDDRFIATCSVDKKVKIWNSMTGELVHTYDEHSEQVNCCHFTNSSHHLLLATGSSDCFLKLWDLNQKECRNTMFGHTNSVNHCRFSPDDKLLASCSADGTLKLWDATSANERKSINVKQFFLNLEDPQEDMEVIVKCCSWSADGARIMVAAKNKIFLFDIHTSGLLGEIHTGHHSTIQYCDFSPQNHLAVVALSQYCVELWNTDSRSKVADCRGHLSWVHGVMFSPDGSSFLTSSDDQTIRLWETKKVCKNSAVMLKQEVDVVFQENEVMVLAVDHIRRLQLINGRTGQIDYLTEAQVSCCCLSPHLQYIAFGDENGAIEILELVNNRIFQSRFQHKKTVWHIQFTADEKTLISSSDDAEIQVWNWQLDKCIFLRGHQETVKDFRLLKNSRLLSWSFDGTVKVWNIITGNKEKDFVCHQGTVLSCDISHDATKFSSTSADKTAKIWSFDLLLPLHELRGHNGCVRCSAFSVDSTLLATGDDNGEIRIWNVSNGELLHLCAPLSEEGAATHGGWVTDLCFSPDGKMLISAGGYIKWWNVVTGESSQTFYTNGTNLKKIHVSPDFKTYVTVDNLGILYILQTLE

T3 sequence (P10145 whole entry): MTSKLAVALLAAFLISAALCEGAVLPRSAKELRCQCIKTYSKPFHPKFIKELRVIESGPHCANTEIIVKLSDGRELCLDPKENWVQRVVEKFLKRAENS
Sequence of Serine/threonine-protein kinase pim-1 (P11309 whole entry): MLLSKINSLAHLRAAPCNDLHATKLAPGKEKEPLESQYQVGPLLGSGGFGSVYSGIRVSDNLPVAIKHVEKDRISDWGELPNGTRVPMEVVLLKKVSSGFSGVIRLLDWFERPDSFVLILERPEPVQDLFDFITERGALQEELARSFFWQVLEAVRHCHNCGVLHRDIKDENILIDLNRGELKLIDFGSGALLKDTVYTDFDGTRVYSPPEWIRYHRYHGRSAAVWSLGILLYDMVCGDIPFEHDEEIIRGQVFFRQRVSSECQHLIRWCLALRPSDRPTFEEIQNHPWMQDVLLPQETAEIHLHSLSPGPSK
Sequence of Kallikrein-7 (P49862 whole entry): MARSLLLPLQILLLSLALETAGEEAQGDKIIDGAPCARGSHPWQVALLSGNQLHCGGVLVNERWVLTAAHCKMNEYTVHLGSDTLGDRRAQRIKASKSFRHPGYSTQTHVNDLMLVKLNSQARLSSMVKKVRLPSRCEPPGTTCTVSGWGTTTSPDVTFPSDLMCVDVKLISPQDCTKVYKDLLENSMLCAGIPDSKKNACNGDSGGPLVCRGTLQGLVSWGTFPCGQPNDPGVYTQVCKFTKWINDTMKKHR
Sequence of Ras and Rab interactor 1/Tyrosine-protein kinase ABL1 (P00519 whole entry): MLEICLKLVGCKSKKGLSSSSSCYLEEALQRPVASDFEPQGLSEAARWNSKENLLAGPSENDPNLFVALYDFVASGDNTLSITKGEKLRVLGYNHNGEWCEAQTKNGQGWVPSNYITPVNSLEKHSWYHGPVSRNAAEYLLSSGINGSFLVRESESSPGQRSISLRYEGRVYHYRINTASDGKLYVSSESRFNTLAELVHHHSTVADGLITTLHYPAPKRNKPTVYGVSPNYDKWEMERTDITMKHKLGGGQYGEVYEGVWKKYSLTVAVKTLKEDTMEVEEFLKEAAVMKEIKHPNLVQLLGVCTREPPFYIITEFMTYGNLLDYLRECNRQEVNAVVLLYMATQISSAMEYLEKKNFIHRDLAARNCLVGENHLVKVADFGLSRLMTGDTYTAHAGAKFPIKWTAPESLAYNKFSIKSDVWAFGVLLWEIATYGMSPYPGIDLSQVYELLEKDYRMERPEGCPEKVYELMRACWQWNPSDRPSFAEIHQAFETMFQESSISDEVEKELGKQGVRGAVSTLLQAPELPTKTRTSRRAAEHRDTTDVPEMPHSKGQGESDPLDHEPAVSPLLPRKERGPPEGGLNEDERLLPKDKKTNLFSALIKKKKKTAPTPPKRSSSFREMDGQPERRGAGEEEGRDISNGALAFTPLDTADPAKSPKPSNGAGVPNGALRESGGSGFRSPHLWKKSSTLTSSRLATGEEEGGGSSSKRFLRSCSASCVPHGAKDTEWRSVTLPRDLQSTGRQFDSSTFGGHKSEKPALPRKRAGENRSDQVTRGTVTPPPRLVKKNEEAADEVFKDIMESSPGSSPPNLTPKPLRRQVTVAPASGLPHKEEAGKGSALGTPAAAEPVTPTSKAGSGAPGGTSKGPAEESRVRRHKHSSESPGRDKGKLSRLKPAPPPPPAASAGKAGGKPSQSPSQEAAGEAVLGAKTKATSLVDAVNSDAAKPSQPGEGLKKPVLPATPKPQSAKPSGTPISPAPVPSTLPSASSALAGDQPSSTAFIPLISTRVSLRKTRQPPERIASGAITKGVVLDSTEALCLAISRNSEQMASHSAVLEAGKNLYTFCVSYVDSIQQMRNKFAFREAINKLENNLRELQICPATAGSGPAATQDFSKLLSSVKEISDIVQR
Sequence of Ras and Rab interactor 1/Tyrosine-protein kinase ABL1 (Q13671 whole entry): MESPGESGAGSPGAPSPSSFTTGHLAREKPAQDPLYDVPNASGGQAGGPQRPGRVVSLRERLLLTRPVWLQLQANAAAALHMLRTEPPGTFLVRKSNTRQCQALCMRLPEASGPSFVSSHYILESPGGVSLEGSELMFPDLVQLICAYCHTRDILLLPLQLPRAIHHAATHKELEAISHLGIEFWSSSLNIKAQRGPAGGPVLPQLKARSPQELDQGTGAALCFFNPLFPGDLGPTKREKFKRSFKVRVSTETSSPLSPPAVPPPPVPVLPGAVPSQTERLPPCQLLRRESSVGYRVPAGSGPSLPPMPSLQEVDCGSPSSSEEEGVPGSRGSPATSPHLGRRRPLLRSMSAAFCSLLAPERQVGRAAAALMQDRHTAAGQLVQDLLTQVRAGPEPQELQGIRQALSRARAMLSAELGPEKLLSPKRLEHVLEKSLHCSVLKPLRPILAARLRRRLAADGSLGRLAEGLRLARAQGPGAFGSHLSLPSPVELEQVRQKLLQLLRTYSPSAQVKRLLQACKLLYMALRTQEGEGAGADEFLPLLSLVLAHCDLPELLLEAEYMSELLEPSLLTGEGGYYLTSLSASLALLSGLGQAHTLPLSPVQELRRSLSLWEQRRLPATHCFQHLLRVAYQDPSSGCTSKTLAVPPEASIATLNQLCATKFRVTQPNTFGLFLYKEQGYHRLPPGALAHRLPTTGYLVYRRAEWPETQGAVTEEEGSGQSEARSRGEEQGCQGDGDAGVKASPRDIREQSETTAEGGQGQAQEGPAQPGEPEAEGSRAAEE
Sequence of Interleukin-1 receptor-associated kinase 4 (Q9NWZ3 whole entry): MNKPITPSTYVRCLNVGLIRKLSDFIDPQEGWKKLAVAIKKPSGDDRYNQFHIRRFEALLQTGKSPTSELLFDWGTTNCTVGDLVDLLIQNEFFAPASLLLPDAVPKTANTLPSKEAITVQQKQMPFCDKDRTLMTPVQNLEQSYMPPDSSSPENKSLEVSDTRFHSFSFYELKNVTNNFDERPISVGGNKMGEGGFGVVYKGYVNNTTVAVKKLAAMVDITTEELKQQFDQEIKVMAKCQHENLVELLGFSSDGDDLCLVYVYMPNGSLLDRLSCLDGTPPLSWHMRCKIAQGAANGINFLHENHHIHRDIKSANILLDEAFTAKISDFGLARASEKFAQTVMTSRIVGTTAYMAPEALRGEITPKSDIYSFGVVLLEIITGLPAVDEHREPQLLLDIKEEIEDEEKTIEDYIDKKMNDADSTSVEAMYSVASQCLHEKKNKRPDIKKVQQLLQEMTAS
Sequence of Glycogen synthase kinase-3 beta (P49841 whole entry): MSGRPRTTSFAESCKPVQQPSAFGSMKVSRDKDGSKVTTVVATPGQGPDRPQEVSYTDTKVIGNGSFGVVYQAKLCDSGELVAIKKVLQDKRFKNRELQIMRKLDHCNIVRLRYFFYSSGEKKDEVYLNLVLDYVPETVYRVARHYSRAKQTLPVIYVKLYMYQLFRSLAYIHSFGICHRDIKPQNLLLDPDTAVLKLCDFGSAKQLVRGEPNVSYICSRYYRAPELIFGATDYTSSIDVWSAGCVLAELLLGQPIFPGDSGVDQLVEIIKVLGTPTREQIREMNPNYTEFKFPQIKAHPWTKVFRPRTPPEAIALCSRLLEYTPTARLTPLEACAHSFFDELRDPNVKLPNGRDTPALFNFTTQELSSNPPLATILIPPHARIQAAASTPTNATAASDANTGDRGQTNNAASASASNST
Sequence of 72 kDa type IV collagenase (P08253 whole entry): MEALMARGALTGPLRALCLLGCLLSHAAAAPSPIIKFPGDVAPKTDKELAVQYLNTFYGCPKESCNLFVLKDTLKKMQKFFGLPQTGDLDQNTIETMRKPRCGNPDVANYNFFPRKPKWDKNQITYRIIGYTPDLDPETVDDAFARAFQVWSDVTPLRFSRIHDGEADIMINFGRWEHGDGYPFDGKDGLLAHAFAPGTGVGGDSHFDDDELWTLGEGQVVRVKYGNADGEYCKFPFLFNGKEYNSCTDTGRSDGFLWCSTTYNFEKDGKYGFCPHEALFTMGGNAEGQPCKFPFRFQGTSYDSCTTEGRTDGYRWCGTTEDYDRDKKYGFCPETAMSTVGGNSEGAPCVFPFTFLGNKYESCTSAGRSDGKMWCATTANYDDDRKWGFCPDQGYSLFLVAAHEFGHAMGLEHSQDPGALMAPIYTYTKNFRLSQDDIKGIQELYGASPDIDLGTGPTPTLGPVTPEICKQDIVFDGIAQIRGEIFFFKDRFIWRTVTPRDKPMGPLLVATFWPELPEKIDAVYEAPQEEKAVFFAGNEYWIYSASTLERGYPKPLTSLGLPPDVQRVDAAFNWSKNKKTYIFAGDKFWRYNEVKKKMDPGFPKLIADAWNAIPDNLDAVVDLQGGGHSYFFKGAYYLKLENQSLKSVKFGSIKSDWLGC
Sequence of Melanocortin receptor 4 (P32245 whole entry): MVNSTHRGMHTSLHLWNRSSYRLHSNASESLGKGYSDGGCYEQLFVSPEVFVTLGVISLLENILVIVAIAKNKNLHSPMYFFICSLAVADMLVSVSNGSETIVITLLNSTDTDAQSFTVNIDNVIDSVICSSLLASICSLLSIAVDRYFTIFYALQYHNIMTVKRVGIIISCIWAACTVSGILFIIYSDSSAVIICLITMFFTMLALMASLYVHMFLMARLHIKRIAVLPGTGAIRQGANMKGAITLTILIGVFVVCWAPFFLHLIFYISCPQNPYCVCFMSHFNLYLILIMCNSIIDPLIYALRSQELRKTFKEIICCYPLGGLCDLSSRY
Sequence of Dual specificity protein kinase CLK4 (Q9HAZ1 whole entry): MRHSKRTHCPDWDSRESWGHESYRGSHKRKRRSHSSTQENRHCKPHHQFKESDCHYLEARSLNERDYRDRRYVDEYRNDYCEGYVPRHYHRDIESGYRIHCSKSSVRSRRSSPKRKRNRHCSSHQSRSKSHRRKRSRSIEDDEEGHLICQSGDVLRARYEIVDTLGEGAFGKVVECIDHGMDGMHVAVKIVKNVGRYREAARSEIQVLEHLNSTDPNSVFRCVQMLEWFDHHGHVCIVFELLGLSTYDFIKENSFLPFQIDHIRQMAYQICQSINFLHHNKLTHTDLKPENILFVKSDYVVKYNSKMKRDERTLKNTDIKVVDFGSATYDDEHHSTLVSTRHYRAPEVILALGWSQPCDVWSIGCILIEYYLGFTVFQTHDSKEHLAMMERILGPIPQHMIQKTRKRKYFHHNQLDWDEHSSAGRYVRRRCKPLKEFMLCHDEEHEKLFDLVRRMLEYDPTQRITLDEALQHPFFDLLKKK

SMILES: O=C(Oc1ccccc1)c1cccc(C(=O)Oc2ccccc2)c1
AC50 [1]: 7.94 µM (inconclusive)

SMILES: COC(=O)Nc1csc2c1NC(=O)CCCC2
IC50 [2]: 5.54 µM (active)

SMILES: COc1ccc(Cc2c(C(C)(C)C)nc3ccc(Cl)cn23)c(C)c1
IC50 (Prothrombin): 17.7 µM (active) | IC50 [3]: > 100 µM (inactive) | IC50 [4]: 22.5 µM (active)

SMILES: O=C(Oc1c(Cl)cc(Cl)c2cccnc12)c1ccco1
AC50 [5]: 2.63 µM (active) | IC50 (Beta-galactosidase): > 66.6 µM (inactive) | EC50 [6]: 2.12 µM (active) | EC50 [7]: 0.098 µM (active) | EC50 [8]: 15.3 µM (active) | AC50 [9]: < 0.195 µM (active) | EC50 [10]: 10.1 µM (active) | EC50 [11]: > 180 µM (inactive) | EC50 [12]: 56.7 µM (inconclusive)

SMILES: COCC(C)Nc1cc(-c2c[nH]c3ncccc23)cc(Cl)n1 (stereo not given)
Ki [15]: 0.002 µM (active) | Ki [16]: 0.794 µM (active) | Ki [17]: 0.794 µM (active) | Ki [18]: 0.251 µM (active) | Ki [19]: 0.01 µM (active) | Ki [20]: 0.00631 µM (active) | Ki [21]: 0.0631 µM (active) | Ki [22]: 0.251 µM (active)

SMILES: COc1ccc2c(c1)[nH]c1c(C)nccc12 [HARMINE HYDROCHLORIDE]
IC50 (Interleukin-8 [23]): 6.96 µM (active) | EC50 (Kallikrein-7): 24.8 µM (inactive) | AC50 [24]: 14.4 µM (active) | IC50 (Interleukin-8 [25]): > 79 µM (inactive)

More lines, main results first:

EC50 (Melanocortin receptor 4): > 89.2 µM (inactive)
SMILES: N#C/C(=C\c1cn(CCOc2ccccc2F)c2ccccc12)C(=O)NCc1cccs1

IC50 [14]: > 20 µM (inactive)
SMILES: Cc1ccc(Nc2nc(N)nc(CN3CCCCCC3)n2)cc1
AC50 [13]: 117 µM (active)

EC50 [26]: > 100 µM (inactive)
SMILES: CC(C)C(=O)Nc1ccc(N)cc1
